This is an account of results in patent US12453731B2, “Aniline-based WDR5 protein-protein interaction inhibitor, and preparation method and use thereof” (CHINA PHARMACEUTICAL UNIVERSITY, priority 2019, dated 2025).

The target in assay [1] is MLL1-WDR5 PPI (Homo sapiens (Human), UniProt P61964). The assay is described as follows: fluorescent probe assay of MLL1-WDR5 protein-protein interaction inhibition. Type of assay: binding. The note with it: fluorescent probe based on MLL1 peptide, incubation 0.5 hrs, read-out: MLL1-WDR5 PPI inhibiting activity IC50. The method, boiled down: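 WDR5 protein incubated 0.5 h with a fluorescent MLL1-peptide probe and serially diluted compound; fluorescence polarization (mP) read at ex 485/em 535 nm. Inhibition rate across concentrations fitted to give IC50.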

Assay [2] deals with methylation level of H3K4. The assay is described as follows: inhibition of the methylation level of H3K4 (methyltransferase activity). Format: biochemical.
For assay [3], the system named is MV4-11 human acute mononuclear leukemia cells. As to the kind of experiment: anti-proliferative activity against leukemia cells MV4-11. Type of assay: cell-based. The settings on record: Homo sapiens, MV4-11, MV4-11 cells; read-out: GI50 (MV-411). An excerpt: (§1) Some compounds of the present disclosure have also been tested for the antiproliferative activity against leukemia cells.

Assay [4] has as its system Molm-13 human acute myeloid leukemia cells. As to the kind of experiment: anti-proliferative activity against leukemia cells Molm-13. Type of assay: cell-based. The note with it: Homo sapiens, MOLM-13, Molm-13 cells.
Text: as §1

Assay [5] relates to MLL1 (H3K4me1/2/3 expression level). As to the kind of experiment: Western blot, methyltransferase function of MLL1 at the cellular level. Format: cell-based. The settings on record: FIG. 1. The text has this:
Moreover, some compounds have also been tested by Western-blot.
On the technique in general: Immunoblotting shows a protein as a band on a membrane.

The test system of assay [6] is Hox and Meis-1 genes. As to the kind of experiment: RT-PCR, expression of downstream Hox and Meis-1 genes at the cellular level. Type of assay: cell-based. The settings on record: FIG. 2. An excerpt: Furthermore, some of the compounds of the present disclosure have also been subjected to a RT-PCR experiment at the cellular level. The results of the inhibitory effect of some compounds on the expression levels of downstream Hox and Meis-1 genes at the cellular level are shown in FIG. 2.

Assay [7] concerns MV4-11 tumor. The assay is described as follows: MV4-11 nude mouse xenograft tumor model. Format: in vivo. The note with it: MV4-11 xenograft in nude mice, oral administration, FIG. 3. The text has this:
In addition, some of the compounds of the present disclosure have also been tested for the anti-tumor activity at the animal level. A nude mice xenograft tumor model of leukemia cells MV4-11 was selected for oral administration.

As usually defined, the IC50 is the concentration that gives 50% inhibition. Broadly, the GI50 is the concentration giving 50% growth inhibition. Consider `CN1CCN(c2cc(F)c(-c3ccc(C(=O)N(C)C)cc3)cc2Nc2ncnc(Cl)c2N)CC1` [Example 72, 5″-((5-amino-6-chloropyrimidin-4-yl)amino)-2′-fluoro-N,N-dimethyl-4″-(4-methylpiperazin-1-yl)-[1,1′-biphenyl]-4-carboxamide], for which the IC50 in assay [1] came out at 0.029 µM. Also, in assay [2], the “Whether the methylation level of H3K4 was inhibited” value was “Yes”. Besides, the concentration for 50% growth inhibition (GI50) came to 12.6 µM in assay [3] and 13.1 µM in assay [4]. Besides, the “inhibition of catalytic activity of MLL1, expression level of H3K4me1/2/3” value in assay [5] was “inhibit the catalytic activity of MLL1 dose-dependently”. In addition, the “expression levels of Hox and Meis-1 genes” value in assay [6] was “down-regulate the expression levels of Hox and Meis-1 genes dose-dependently”. The “inhibition of tumor growth” value in assay [7] is listed as “inhibit the tumor growth dose-dependently”.
For `CC(C)NC(=O)c1ccc(-c2ccc(N3CCN(C)CC3)c(Nc3ncnc(Cl)c3N)c2)cc1` [Example 31, 3″-((5-amino-6-chloropyrimidin-4-yl)amino)-N-isopropyl-4″-(4-methylpiperazin-1-yl)-[1,1′-biphenyl]-4-carboxamide], the IC50 in assay [1] stood at 0.46 µM. Moreover, in assay [2], the “Whether the methylation level of H3K4 was inhibited” value is recorded as “Yes”. Further, the GI50 in assay [3] was 10.5 µM; in assay [4], 18.8 µM.
The matching figures for `CN1CCN(C(=O)c2ccc(-c3ccc(N4CCN(C)CC4)c(Nc4ncnc(Cl)c4N)c3)cc2)CC1` [Example 27, (3″-((5-amino-6-chloropyrimidin-4-yl)amino)-4″-(4-methylpiperazin-1-yl)-[1,1′-biphenyl]-4-yl)(4-methylpiperazin-1-yl) methanone]: 0.217 µM, “Yes”, 39.2 µM and 34 µM.
Taken in the same sequence, the figures for `CN1CCN(c2ccc(-c3ccc(C(=O)NCCCO)cc3)cc2Nc2ncnc(Cl)c2N)CC1` [Example 30, 3″-((5-amino-6-chloropyrimidin-4-yl)amino)-N-(3-hydroxylpropyl)-4″-(4-methylpiperazin-1-yl)-[1,1′-biphenyl]-zole-4-carboxamide] were 0.31 µM, “Yes”, 27.3 µM and 32.6 µM.
Taken in the same sequence, the figures for `CN1CCC(C(=O)Nc2ccc(-c3ccc(N4CCN(C)CC4)c(Nc4ncnc(Cl)c4N)c3F)cc2)CC1` [Example 60, N-(3″-((5-amino-6-chloropyrimidin-4-yl)amino)-2′-fluoro-4″-(4-methylpiperazin-1-yl)-[1,1′-biphenyl]-pyridin-4-yl)-1-methylpiperidin-4-carboxamide] were 0.105 µM, “Yes”, 22.7 µM and 22.6 µM.
On to `CN1CCN(c2cc(F)c(-c3ccc(C(=O)NCCCN4CCOCC4)cc3)cc2Nc2ncnc(Cl)c2N)CC1` [Example 69], for which the IC50 in assay [1] is 0.021 µM. Moreover, the “Whether the methylation level of H3K4 was inhibited” value in assay [2] is listed as “Yes”. Further, the GI50 in assay [3] stood at 25.6 µM; in assay [4], 17.3 µM.
Taken in the same sequence, the figures for `CC(C)C(N)C(=O)Nc1ccc(-c2ccc(N3CCN(C)CC3)c(Nc3ncnc(Cl)c3N)c2F)cc1` (stereo not drawn) [Example 62, 2-amino-N-(3″-((5-amino-6-chloropyrimidin-4-yl)amino)-2′-fluoro-4″-(4-methylpiperazin-1-yl)-[1,1′biphenylyl]-4-yl)-3-methylbutyramide] were 0.034 µM, “Yes”, 17.4 µM and 22 µM.
For `CCN1CCN(C(=O)c2ccc(-c3ccc(N4CCN(C)CC4)c(Nc4ncnc(Cl)c4N)c3F)cc2)CC1` [Example 58, (3″-((5-amino-6-chloropyrimidin-4-yl)amino)-2′-fluoro-4″-(4-methylpiperazin-1-yl)-[1,1′-biphenyl]-4-yl)(4-ethylpiperazin-1-yl)methanone], the IC50 in assay [1] is 0.112 µM. Further, the “Whether the methylation level of H3K4 was inhibited” value in assay [2] is recorded as “Yes”. Further, the results for the GI50 in assay [3] and in assay [4] were 19.5 µM and 20.3 µM, respectively.
The matching figures for `CN1CCN(c2ccc(-c3ccc(C(=O)NCCN4CCCC4)cc3)cc2Nc2ncnc(Cl)c2N)CC1` [Example 29, 3″-((5-amino-6-chloropyrimidin-4-yl)amino)-4″-(4-methylpiperazin-1-yl)-N-(2-(pyrrolidin-1-yl)ethyl)-[11,1′-biphenylyl]-4-carboxamide]: 0.37 µM, “Yes”, 16.6 µM and 18.2 µM.
Taken in the same sequence, the figures for `CN1CCN(c2cc(F)c(-c3ccc(C(=O)N4CCOCC4)cc3)cc2Nc2ncnc(Cl)c2N)CC1` [Example 67, (5″-((5-amino-6-chloropyrimidin-4-yl)amino)-2′-fluoro-4″-(4-methylpiperazin-1-yl)-[1,1′-biphenyl]-4-yl)(morpholino)methanone] were 0.036 µM, “Yes”, 19.6 µM and 16.5 µM.
Taken in the same sequence, the figures for `CN1CCN(c2ccc(-c3ccc(C(=O)N(C)C)cc3)c(F)c2Nc2ncnc(Cl)c2N)CC1` [Example 54, 3″-((5-amino-6-chloropyrimidin-4-yl)amino)-2′-fluoro-N,N-dimethyl-4″-(4-methylpiperazin-1-yl)-[1,1′-biphenyl]-4-carboxamide] were 0.24 µM, “Yes”, 17.5 µM and 16.2 µM.
As to `CN1CCN(c2ccc(-c3ccc(C(=O)N4CCOCC4)cc3)cc2Nc2ncnc(Cl)c2N)CC1` [Example 23, (3″-((5-amino-6-chloropyrimidin-4-yl)amino)-4-(4-methylpiperazin-1-yl)-[1,1′-biphenyl]-4-yl)(morpholino)methanone], the IC50 in assay [1] came to 0.186 µM. Also, the “Whether the methylation level of H3K4 was inhibited” value in assay [2] is listed as “Yes”. Further, the GI50 in assay [3] is 16.7 µM; in assay [4], 23.4 µM.
As for `CN1CCN(c2ccc(-c3ccc(C(=O)N(C)C)cc3)cc2Nc2ncnc(Cl)c2N)CC1` [Example 26, 3″-((5-amino-6-chloropyrimidin-4-yl)amino)-N,N-dimethyl-4″-(4-methylpiperazin-1-yl)-[1,1′-biphenyl]-4-carboxamide], the IC50 in assay [1] came to 0.36 µM. Moreover, the “Whether the methylation level of H3K4 was inhibited” value in assay [2] is “Yes”. Besides, the GI50 in assay [3] was 48.6 µM; in assay [4], 30.7 µM.
The matching figures for `CN1CCN(C(=O)c2ccc(-c3ccc(N4CCN(C)CC4)c(Nc4ncnc(Cl)c4N)c3)c(F)c2)CC1` [Example 38, (3″-((5-amino-6-chloropyrimidin-4-yl)amino)-2-fluoro-4″-(4-methylpiperazin-1-yl)-[1,1′-biphenyl]-4-yl)(4-methylpiperazin-1-yl)methanone]: 0.652 µM, “Yes”, 20.8 µM and 26 µM.
With `CN1CCC(C(=O)Nc2cccc(-c3ccc(N4CCN(C)CC4)c(Nc4ncnc(Cl)c4N)c3)c2)CC1` [Example 41, N-(3″-((5-amino-6-chloropyrimidin-4-yl)amino)-4″-(4-methylpiperazin-1-yl)-[1,1′-biphenyl]-3-yl)-1-methylpiperidin-4-carboxamide], the IC50 in assay [1] stood at 0.329 µM. Besides, in assay [2], the “Whether the methylation level of H3K4 was inhibited” value was “Yes”. For the same molecule, the GI50 in assay [3] stood at 25.8 µM; in assay [4], 24.4 µM.
